# Experimental data: patent US8530636B2, “Method for regulating protein function in cells in vivo using synthetic small molecules” (priority 2008, dated 2013)
# Like-named read-outs stand apart in the source and are kept apart here.
# Tested on: HCT116 tumors
substance,measurement,setting,value
"1-[2-(3,4,5-trimethoxy-phenyl)-butyryl]-piperazine-2-carboxylic acid 3-(3,4-dimethoxy-phenyl)-1-[3-(2-morpholin-4-yl-ethoxy)-phenyl]-propyl ester [Shield1]",Virus in the tumor (viral luciferase expression),Shield1 delayed until 3 days following virus,equivalent to those observed in animals treated with virus alone
same,Virus in the tumor (viral luciferase expression),Shield1 started prior to virus delivery,only modest levels of virus
same,Adverse physiological effects,"mouse, in vivo",no adverse physiological effects observed
same,Tumor burden compared to virus alone,"mouse, in vivo",significantly decreased tumor burden
same,Tumor responses,"mouse, in vivo",Seven of the eight animals demonstrated complete and durable responses
same,"Tumor burden, Shield1 alone",no virus,no effect on tumor burden
